System: Porcine alkaline phosphatase
Assay: Conversion of prodrug to parent compound by alkaline phosphatase in pH 7.0 Tris-HCl buffer solution
Format: in vitro ADME
Method: Phosphate ester prodrug was dissolved in pH 7.0 Tris-HCl buffer to a concentration of 0.72 mg/mL. Porcine alkaline phosphatase (1 mg/mL) was added to an aliquot of the solution. 2.5 hours after enzyme addition a sample was analyzed. The results in the Table below confirm that alkaline phosphatase is active in pH 7.0 Tris-HCl buffer and rapidly hydrolyzes the phosphate ester prodrug to the parent compound.

- Prodrug peak area (2.5 hr sample of solution containing enzyme (1 mg/mL)): 0.0%
- Prodrug peak area (initial sample of prodrug solution (no enzyme), 0.72 mg/mL, percent of total prodrug+parent peak area): 99.9%
Compound: COc1cnc(-n2cnc(C)n2)c2c1c(C(=O)C(=O)N1CCN(C(=O)c3ccccc3)CC1)cn2COP(=O)(O)O [Prodrug, 1-benzoyl-4-[2-[4-methoxy-7-(3-methyl-1H-1,2,4-triazol-1-yl)-1-[(phosphonooxy)methyl]-1H-pyrrolo[2,3-c]pyridin-3-yl]-1,2-dioxoethyl]-piperazine]
